From patent publication US9708314B2, “Heterocyclic amide compound” (NISSAN CHEMICAL INDUSTRIES, LTD., priority 2013, dated 2017)

What was measured:
Assay type in all cases: in vivo
Digitaria ciliaris = assay: Test Example 4: herbicidal effect by application to foliage (diluvial soil, plastic box); settings: application to foliage, 320 g/ha
In short: (§1)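 Greenhouse plants (25° C. to 30° C., 14 d, diluvial soil) receive a foliar spray of water-diluted emulsifiable formulation at defined g/ha. Grading after 3 weeks uses a six-step herbicidal-ratio scale, with 4 covering 70% to <90% and 1 covering 5% to <20%.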

Setaria viridis = assay: as above; settings: application to foliage, 320 g/ha
In short: as §1

Amaranthus retroflexus = assay: as above; settings: application to foliage, 320 g/ha
In short: as §1

Abutilon theophrasti = assay: as above; settings: application to foliage, 320 g/ha
In short: as §1

Galium spurium = assay: as above; settings: application to foliage, 320 g/ha
In short: as §1

Veronica persica = assay: as above; settings: application to foliage, 320 g/ha
In short: as §1

[1] = system: Echinochloa crus-galli var. crus-galli; assay: as above; settings: application to foliage, 320 g/ha
In short: as §1

Avena fatua = assay: as above; settings: application to foliage, 320 g/ha
In short: as §1

Lolium multiflorum Lam. = assay: as above; settings: application to foliage, 320 g/ha
In short: as §1

Chenopodium album = assay: as above; settings: application to foliage, 320 g/ha
In short: as §1

Apera spica-venti. = assay: as above; settings: application to foliage, 320 g/ha
In short: as §1

Stellaria media = assay: as above; settings: application to foliage, 320 g/ha
In short: as §1

Alopecurus myosuroides = assay: as above; settings: application to foliage, 320 g/ha
In short: as §1

[2] = system: directly sowed Oryza sativa; assay: Test Example 3: effect on crop by application to foliage (Wagner pot, water depth 0.1-0.5 cm); settings: Nineteenth Table; application to foliage; application herbicide amount 320 g/ha
In short: (§2)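 Wagner pot foliar test: sow, grow 14 d (25–30 °C), spray diluted emulsion at set g/ha, score after 3 wk; 0 ≤5%, 5 ≥90% herbicidal ratio.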

Leptochloa chinensis = assay: Test Example 3: herbicidal effect by application to foliage (Wagner pot, water depth 0.1-0.5 cm); settings: Nineteenth Table; application to foliage; application herbicide amount 320 g/ha
In short: as §2

[3] = system: Echinochloa crus-galli var. crus-galli; assay: as above; settings: Nineteenth Table; application to foliage; application herbicide amount 320 g/ha
In short: as §2

Cyperus difformis = assay: as above; settings: Nineteenth Table; application to foliage; application herbicide amount 320 g/ha
In short: as §2

| Structure (SMILES) | herbicidal effect, F (Digitaria ciliaris) (Digitaria ciliaris) | herbicidal effect, G (Setaria viridis) (Setaria viridis) | herbicidal effect, N (Amaranthus retroflexus) (Amaranthus retroflexus) | herbicidal effect, M (Abutilon theophrasti) (Abutilon theophrasti) | herbicidal effect, Q (Galium spurium) (Galium spurium) | herbicidal effect, R (Veronica persica) (Veronica persica) | herbicidal effect, H (Echinochloa crus-galli var. crus-galli) [1] | herbicidal effect, I (Avena fatua) (Avena fatua) | herbicidal effect, K (Lolium multiflorum Lam.) (Lolium multiflorum Lam.) | herbicidal effect, O (Chenopodium album) (Chenopodium album) | herbicidal effect, L (Apera spica-venti.) (Apera spica-venti.) | herbicidal effect, P (Stellaria media) (Stellaria media) | herbicidal effect, J (Alopecurus myosuroides) (Alopecurus myosuroides) | b (effect on crop grade) [2] | D (herbicidal effect grade) (Leptochloa chinensis) | H (herbicidal effect grade) [3] | E (herbicidal effect grade) (Cyperus difformis) |
| --- | --- | --- | --- | --- | --- | --- | --- | --- | --- | --- | --- | --- | --- | --- | --- | --- | --- |
| Cn1nnnc1NC(=O)c1ccc(C(F)(F)F)n2c(NCC(F)(F)F)nnc12 [2-081] | 4 (Herbicidal ratio of 70% or more and less than 90%) | 3 (Herbicidal ratio of 40% or more and less than 70%) | 5 (Herbicidal ratio of 90% or more (almost completely withered)) | 4 (Herbicidal ratio of 70% or more and less than 90%) | 3 (Herbicidal ratio of 40% or more and less than 70%) | 4 (Herbicidal ratio of 70% or more and less than 90%) | 5 (Herbicidal ratio of 90% or more (almost completely withered)) | 3 (Herbicidal ratio of 40% or more and less than 70%) | 1 (Herbicidal ratio of 5% or more and less than 20%) | 5 (Herbicidal ratio of 90% or more (almost completely withered)) | 1 (Herbicidal ratio of 5% or more and less than 20%) | 5 (Herbicidal ratio of 90% or more (almost completely withered)) | 1 (Herbicidal ratio of 5% or more and less than 20%) | 4 (Herbicidal ratio of 70% or more and less than 90%) | 5 (Herbicidal ratio of 90% or more (almost completely withered)) | 5 (Herbicidal ratio of 90% or more (almost completely withered)) | 5 (Herbicidal ratio of 90% or more (almost completely withered)) |
| CC(C)N(C)c1nnc2c(C(=O)Nc3nnnn3C)ccc(C(F)(F)F)n12 [2-082] | 5 (Herbicidal ratio of 90% or more (almost completely withered)) | 5 (Herbicidal ratio of 90% or more (almost completely withered)) | 5 (Herbicidal ratio of 90% or more (almost completely withered)) | 5 (Herbicidal ratio of 90% or more (almost completely withered)) | 4 (Herbicidal ratio of 70% or more and less than 90%) | 4 (Herbicidal ratio of 70% or more and less than 90%) | 5 (Herbicidal ratio of 90% or more (almost completely withered)) | 2 (Herbicidal ratio of 20% or more and less than 40%) | 4 (Herbicidal ratio of 70% or more and less than 90%) | 5 (Herbicidal ratio of 90% or more (almost completely withered)) | 4 (Herbicidal ratio of 70% or more and less than 90%) | 5 (Herbicidal ratio of 90% or more (almost completely withered)) | 4 (Herbicidal ratio of 70% or more and less than 90%) | 5 (Herbicidal ratio of 90% or more (almost completely withered)) | 5 (Herbicidal ratio of 90% or more (almost completely withered)) | 5 (Herbicidal ratio of 90% or more (almost completely withered)) | 5 (Herbicidal ratio of 90% or more (almost completely withered)) |
